Holding throughout (assay type): functional
For test [1], the system named is Enterococcus faecium. The test can be described thus: Antimicrobial activity against Enterococcus faecium expressing VanA gene clinical isolates by broth microdilution method. On the technique in general: In broth dilution the organism is exposed to a series of concentrations in liquid medium.
Test [2] relates to Enterococcus faecalis. Nature of the test: Antimicrobial activity against Enterococcus faecalis clinical isolates assessed as resistant isolates by broth microdilution method.
The test system of test [3] is Enterococcus faecium. Nature of the test: Antimicrobial activity against Enterococcus faecium expressing VanB gene clinical isolates assessed as resistant isolates by broth microdilution method.
The test system of test [4] is Enterococcus faecium. The test can be described thus: Antimicrobial activity against vancomycin-nonsusceptible Enterococcus faecium clinical isolates by broth microdilution method.
For test [5], the system named is Enterococcus faecalis. The test can be described thus: Antimicrobial activity against vancomycin-nonsusceptible Enterococcus faecalis clinical isolates assessed as percent susceptible isolates by broth microdilution method.
The test system of test [6] is Enterococcus faecalis. Nature of the test: Antimicrobial activity against vancomycin-nonsusceptible Enterococcus faecalis clinical isolates assessed as resistant isolates by broth microdilution method.
Test [7] concerns Enterococcus faecalis. Nature of the test: Antimicrobial activity against Enterococcus faecalis expressing VanA gene clinical isolates by broth microdilution method.
Test [8] has as its system Enterococcus faecium. The test can be described thus: Antimicrobial activity against Enterococcus faecium clinical isolates assessed as percent susceptible isolates by broth microdilution method.
The test system of test [9] is Enterococcus faecium. The test can be described thus: Antimicrobial activity against vancomycin-susceptible Enterococcus faecium clinical isolates assessed as percent susceptible isolates by broth microdilution method.
The test system of test [10] is Enterococcus faecium. The test can be described thus: Antimicrobial activity against Enterococcus faecium expressing VanB gene clinical isolates by broth microdilution method.
Test [11] has as its system Enterococcus faecium. The test can be described thus: Antimicrobial activity against vancomycin-susceptible Enterococcus faecium clinical isolates assessed as resistant isolates by broth microdilution method.
The subject of test [12] is Enterococcus faecalis. Nature of the test: Antimicrobial activity against Enterococcus faecalis expressing VanB gene clinical isolates assessed as percent susceptible isolates by broth microdilution method.
Test [13] has as its system Enterococcus faecalis. The test can be described thus: Antimicrobial activity against vancomycin-susceptible Enterococcus faecalis clinical isolates assessed as resistant isolates by broth microdilution method.
Test [14] deals with Enterococcus faecium. The test can be described thus: Antimicrobial activity against vancomycin-susceptible Enterococcus faecium clinical isolates by broth microdilution method.
Test [15] has as its system Enterococcus faecium. The test can be described thus: Antimicrobial activity against Enterococcus faecium expressing VanA gene clinical isolates assessed as percent susceptible isolates by broth microdilution method.
The subject of test [16] is Enterococcus faecalis. The test can be described thus: Antimicrobial activity against vancomycin-susceptible Enterococcus faecalis clinical isolates assessed as percent susceptible isolates by broth microdilution method.
Test [17] concerns Enterococcus faecalis. The test can be described thus: Antimicrobial activity against Enterococcus faecalis clinical isolates assessed as percent susceptible isolates by broth microdilution method.
The test system of test [18] is Enterococcus faecalis. The test can be described thus: Antimicrobial activity against Enterococcus faecalis expressing VanA gene clinical isolates assessed as resistant isolates by broth microdilution method.
For test [19], the system named is Enterococcus faecium. Nature of the test: Antimicrobial activity against Enterococcus faecium clinical isolates assessed as resistant isolates by broth microdilution method.
The test system of test [20] is Enterococcus faecalis. The test can be described thus: Antimicrobial activity against Enterococcus faecalis expressing VanA gene clinical isolates assessed as percent susceptible isolates by broth microdilution method.
Test [21] relates to Enterococcus faecalis. Nature of the test: Antimicrobial activity against Enterococcus faecalis expressing VanB gene clinical isolates by broth microdilution method.
Test [22] has as its system Enterococcus faecium. The test can be described thus: Antimicrobial activity against Enterococcus faecium expressing VanB gene clinical isolates assessed as percent susceptible isolates by broth microdilution method.
For test [23], the system named is Enterococcus faecium. The test can be described thus: Antimicrobial activity against vancomycin-nonsusceptible Enterococcus faecium clinical isolates assessed as percent susceptible isolates by broth microdilution method.
The test system of test [24] is Enterococcus faecalis. Nature of the test: Antimicrobial activity against vancomycin-nonsusceptible Enterococcus faecalis clinical isolates by broth microdilution method.
Test [25] concerns Enterococcus faecalis. The test can be described thus: Antimicrobial activity against Enterococcus faecalis expressing VanB gene clinical isolates assessed as resistant isolates by broth microdilution method.
Test [26] has as its system Enterococcus faecalis. Nature of the test: Antimicrobial activity against vancomycin-susceptible Enterococcus faecalis clinical isolates by broth microdilution method.
Test [27] has as its system Enterococcus faecium. The test can be described thus: Antimicrobial activity against Enterococcus faecium clinical isolates by broth microdilution method.
The test system of test [28] is Enterococcus faecium. Nature of the test: Antimicrobial activity against vancomycin-nonsusceptible Enterococcus faecium clinical isolates assessed as resistant isolates by broth microdilution method.
In test [29] the test system is Enterococcus faecalis. Nature of the test: Antimicrobial activity against Enterococcus faecalis clinical isolates by broth microdilution method.
Test [30] deals with Enterococcus faecium. Nature of the test: Antimicrobial activity against Enterococcus faecium expressing VanA gene clinical isolates assessed as resistant isolates by broth microdilution method.
Test [31] has as its system Streptococcus pneumoniae. Nature of the test: Antimicrobial activity against penicillin-resistant Streptococcus pneumoniae clinical isolates assessed as resistant isolates by broth microdilution method.
Test [32] deals with Streptococcus pneumoniae. Nature of the test: Antimicrobial activity against penicillin-susceptible Streptococcus pneumoniae clinical isolates by broth microdilution method.
Test [33] has as its system Streptococcus pneumoniae. Nature of the test: Antimicrobial activity against penicillin-susceptible Streptococcus pneumoniae clinical isolates assessed as percent susceptible isolates by broth microdilution method.
For test [34], the system named is Streptococcus pneumoniae. Nature of the test: Antimicrobial activity against penicillin-intermediate Streptococcus pneumoniae clinical isolates by broth microdilution method.
The test system of test [35] is Streptococcus pneumoniae. The test can be described thus: Antimicrobial activity against Streptococcus pneumoniae clinical isolates by broth microdilution method.
In test [36] the test system is Streptococcus pneumoniae. Nature of the test: Antimicrobial activity against penicillin-susceptible Streptococcus pneumoniae clinical isolates assessed as resistant isolates by broth microdilution method.
In test [37] the test system is Streptococcus pneumoniae. Nature of the test: Antimicrobial activity against penicillin-resistant Streptococcus pneumoniae clinical isolates assessed as percent susceptible isolates by broth microdilution method.
In test [38] the test system is Streptococcus pneumoniae. The test can be described thus: Antimicrobial activity against penicillin-resistant Streptococcus pneumoniae clinical isolates by broth microdilution method.
Test [39] concerns Streptococcus pneumoniae. The test can be described thus: Antimicrobial activity against Streptococcus pneumoniae clinical isolates assessed as percent susceptible isolates by broth microdilution method.
In test [40] the test system is Streptococcus pneumoniae. Nature of the test: Antimicrobial activity against Streptococcus pneumoniae clinical isolates assessed as resistant isolates by broth microdilution method.
Test [41] relates to Streptococcus pneumoniae. The test can be described thus: Antimicrobial activity against penicillin-intermediate Streptococcus pneumoniae clinical isolates assessed as resistant isolates by broth microdilution method.
Test [42] relates to Streptococcus pneumoniae. Nature of the test: Antimicrobial activity against penicillin-intermediate Streptococcus pneumoniae clinical isolates assessed as percent susceptible isolates by broth microdilution method.

In brackets after ≈: the same amount, converted by molar mass. Some results are limits rather than exact numbers.

Consider `CC1(C)S[C@@H]2[C@H](NC(=O)[C@H](N)c3ccccc3)C(=O)N2[C@H]1C(=O)O` [AMPICILLIN], for which the MIC90 was over 256 µg/mL against Enterococcus faecium [1]; over 256 µg/mL in the test with Enterococcus faecium [4]; 2 µg/mL (≈ 5.72 µM) against Enterococcus faecalis [7]; over 256 µg/mL against Enterococcus faecium [10]; 256 µg/mL (≈ 733 µM) in the test on Enterococcus faecium [14]; 2 µg/mL (≈ 5.72 µM) in the test on Enterococcus faecalis [21]. The MIC90 in the test with Enterococcus faecalis [24] was 2 µg/mL (≈ 5.72 µM); against Enterococcus faecalis [26] it was 1 µg/mL (≈ 2.86 µM); in the test with Enterococcus faecium [27] it was over 256 µg/mL; in the test on Enterococcus faecalis [29] it was 1 µg/mL (≈ 2.86 µM). The Activity in the test with Enterococcus faecalis [2] is given as 0.1%; in the test on Enterococcus faecium [3], 96.6%; in the test on Enterococcus faecalis [5] it was 100%; with Enterococcus faecalis [6], 0%; in the test on Enterococcus faecium [8], 12.7%; in the test on Enterococcus faecium [9], 27.7%. Further, the Activity in the test on Enterococcus faecium [11] is 72.3%; in the test with Enterococcus faecalis [12], 100%; in the test with Enterococcus faecalis [13], 0.1%; with Enterococcus faecium [15], 1%; in the test on Enterococcus faecalis [16] it was 99.9%; in the test on Enterococcus faecalis [17], 99.9%. For the same compound, the Activity with Enterococcus faecalis [18] is listed as 0%; in the test on Enterococcus faecium [19], 87.3%; in the test on Enterococcus faecalis [20] it was 100%; in the test on Enterococcus faecium [22], 3.4%; in the test with Enterococcus faecium [23] it was 1.5%; with Enterococcus faecalis [25], 0%. For the same compound, the results for the Activity in the test with Enterococcus faecium [28] and in the test on Enterococcus faecium [30] were 98.5% and 99%, respectively.
`CO/N=C(\C(=O)N[C@@H]1C(=O)N2C(C(=O)O)=C(CSc3nc(=O)c(O)nn3C)CS[C@H]12)c1csc(N)n1` [CEFTRIAXONE]: the “Percent of isolates resistant” value in the test with Streptococcus pneumoniae [31] was found to be 7.4%; in the test with Streptococcus pneumoniae [36] it was 0%; with Streptococcus pneumoniae [41], 0.5%. Moreover, the MIC90 against Streptococcus pneumoniae [32] amounted to 0.03 µg/mL (≈ 0.0541 µM); in the test on Streptococcus pneumoniae [34], 0.5 µg/mL (≈ 0.902 µM); against Streptococcus pneumoniae [35], 1 µg/mL (≈ 1.8 µM); in the test on Streptococcus pneumoniae [38] it was 2 µg/mL (≈ 3.61 µM). Besides, the Activity in the test with Streptococcus pneumoniae [33] is reported as 100%; in the test with Streptococcus pneumoniae [37] it was 80.4%; in the test on Streptococcus pneumoniae [39], 97%; in the test on Streptococcus pneumoniae [42] it was 99.5%. In the test with Streptococcus pneumoniae [40], the Resistant isolates is given as 1.2%.
For the compound `CC[C@H]1OC(=O)[C@H](C)C(=O)[C@H](C)[C@@H](O[C@@H]2O[C@H](C)C[C@H](N(C)C)[C@H]2O)[C@](C)(OC)C[C@@H](C)C(=O)[C@H](C)[C@H]2N(CCCCn3cnc(-c4cccnc4)c3)C(=O)O[C@]12C` [TELITHROMYCIN], the “Percent of isolates resistant” value in the test on Streptococcus pneumoniae [31], with Streptococcus pneumoniae [36] and in the test on Streptococcus pneumoniae [41] was 0% throughout. Moreover, the MIC90 against Streptococcus pneumoniae [32] is 0.015 µg/mL (≈ 0.0185 µM); against Streptococcus pneumoniae [34], 0.25 µg/mL (≈ 0.308 µM); with Streptococcus pneumoniae [35], 0.25 µg/mL (≈ 0.308 µM); in the test on Streptococcus pneumoniae [38], 0.5 µg/mL (≈ 0.616 µM). For the same compound, the Activity in the test on Streptococcus pneumoniae [33], in the test with Streptococcus pneumoniae [39] and in the test with Streptococcus pneumoniae [42] was 100% throughout. Further, in the test with Streptococcus pneumoniae [40], the Resistant isolates is reported as 0%.

As usually defined, the MIC90 is the lowest concentration that inhibits either 90% of growth or 90% of the strains tested, depending on the study. A higher MIC90 goes with weaker potency.

The values above are taken from ChEMBL document CHEMBL1649268, “Comparative in vitro activity profile of oritavancin against recent gram-positive clinical isolates” (2009).
